{
  "source": "patent US8877483B2",
  "about": "“Dioxin elimination promoter” (priority 2002, dated 2014)",
  "system": "liver cytochrome P450",
  "test": "EPR spectra of rat liver after oral administration of PCB126 (construction of model animals)",
  "format": "in vivo",
  "conditions": "rats, single forced oral dose 0, 0.3, 3, 30 or 100 μg/kg bw in corn oil, liver isolated 24 hour after administration; FIG. 1",
  "method": "When the EPR measurement is carried out with rat liver as an experimental animal, the resonance absorption of an iron atom contained in cytochrome P450 protein is observed at a position of g=2.40. When dioxin were administered to a rat, an abnormal resonance absorption which is not observed in untreated case appears as a signal at a position of g=2.49, in addition to the normal resonance absorptions. Since the intensity of the abnormal signal becomes higher according to increase of an amount of dioxins administered, it can be a living body index showing a degree of pollution.\nAs laboratory animals, rats to which PCB 126 (3,3′,4,4′,5-pentachlorobiphenyl) had been administered were prepared. The rats were 6-week-old Sprangue-Dawley (purchased from Nippon Charles River). After acclimation rearing for about one week, they forcedly administered with solutions containing an adequate concentration of PCB 126 (manufactured by Wellington Laboratories; purity: 99.99% or more) dissolved in commercially available corn oil (manufactured by Hayashi Chemicals) so that the amount of cPCB was 0 (control), 0.3, 3, 30 or 100 μg/kg body weight (bw) in the same amount of corn oil through a probe. PCB-administered rats were euthanized with ether 24 hour after the administration. […] Then, tissue fragments were analyzed by an EPR measurement method. […]",
  "data": [
    {"smiles": "Clc1ccc(-c2cc(Cl)c(Cl)c(Cl)c2)cc1Cl", "note": "[cPCB, 3,3′,4,4′,5-pentachlorobiphenyl]", "values": [
      {"measurement": "abnormal EPR signal at g=2.49 in liver tissue fragments", "value": "intensity varies depending on the administered amount"}
    ]}
  ]
}
